Active and inactive are the calls of the source. No rule for the calls is given here.
Test system: CCRIS mutagenicity, Ames/micronucleus/aberration tests
Experiment: CCRIS mutagenicity studies
[1] = Test System: AMES SALMONELLA TYPHIMURIUM, Strain/Indicator: TA98, Metabolic Activation: NONE, Method: PREINCUBATION
[2] = Test System: AMES SALMONELLA TYPHIMURIUM, Strain/Indicator: TA100, Metabolic Activation: NONE, Method: PREINCUBATION
[3] = Test System: AMES SALMONELLA TYPHIMURIUM, Strain/Indicator: TA1535, Metabolic Activation: NONE, Method: PREINCUBATION
[4] = Test System: AMES SALMONELLA TYPHIMURIUM, Strain/Indicator: TA1537, Metabolic Activation: NONE, Method: PREINCUBATION

In the case of CC(O)CO (centres undefined), the mutagenic call (Test System: AMES SALMONELLA TYPHIMURIUM, Strain/Indicator: TA98, Metabolic Activation: HAMSTER, LIVER, S-9, AROCLOR 1254, Method: PREINCUBATION) is reported as “inactive; negative”, the mutagenic call [1] is reported as “inactive; negative” and the mutagenic call (Test System: AMES SALMONELLA TYPHIMURIUM, Strain/Indicator: TA98, Metabolic Activation: RAT, LIVER, S-9, AROCLOR 1254, Method: PREINCUBATION) is reported as “inactive; negative”. For the same molecule, the mutagenic call (Test System: AMES SALMONELLA TYPHIMURIUM, Strain/Indicator: TA100, Metabolic Activation: HAMSTER, LIVER, S-9, AROCLOR 1254, Method: PREINCUBATION) was “inactive; negative”, the mutagenic call [2] was “inactive; negative” and the mutagenic call (Test System: AMES SALMONELLA TYPHIMURIUM, Strain/Indicator: TA100, Metabolic Activation: RAT, LIVER, S-9, AROCLOR 1254, Method: PREINCUBATION) was “inactive; negative”. The mutagenic call (Test System: AMES SALMONELLA TYPHIMURIUM, Strain/Indicator: TA1535, Metabolic Activation: HAMSTER, LIVER, S-9, AROCLOR 1254, Method: PREINCUBATION) was “inactive; negative”, the mutagenic call [3] was “inactive; negative” and the mutagenic call (Test System: AMES SALMONELLA TYPHIMURIUM, Strain/Indicator: TA1535, Metabolic Activation: RAT, LIVER, S-9, AROCLOR 1254, Method: PREINCUBATION) was “inactive; negative”. For the same molecule, the mutagenic call (Test System: AMES SALMONELLA TYPHIMURIUM, Strain/Indicator: TA1537, Metabolic Activation: HAMSTER, LIVER, S-9, AROCLOR 1254, Method: PREINCUBATION) was “inactive; negative”, the mutagenic call [4] was “inactive; negative” and the mutagenic call (Test System: AMES SALMONELLA TYPHIMURIUM, Strain/Indicator: TA1537, Metabolic Activation: RAT, LIVER, S-9, AROCLOR 1254, Method: PREINCUBATION) was “inactive; negative”.

For CN(C)CCCNc1c2ccccc2nc2c(Cl)ccc([N+](=O)[O-])c12, the mutagenic call (Test System: AMES SALMONELLA TYPHIMURIUM, Strain/Indicator: TA98, Metabolic Activation: NONE, Method: STANDARD PLATE) was “active; positive” and the mutagenic call (Test System: AMES SALMONELLA TYPHIMURIUM, Strain/Indicator: TA100, Metabolic Activation: NONE, Method: STANDARD PLATE) was “active; positive”.

In the case of CCOC(=O)C1OC1(C)c1ccccc1 (centres undefined), the mutagenic call (End Point: IN VITRO CHROMOSOMAL ABERRATIONS, Test System: CHINESE HAMSTER OVARY CELLS, Metabolic Activation: NONE) is reported as “active; positive; statistically significant increase, but not dose-related”, the mutagenic call (End Point: IN VITRO CHROMOSOMAL ABERRATIONS, Test System: CHINESE HAMSTER OVARY CELLS, Metabolic Activation: RAT, LIVER, S-9, AROCLOR 1254) is reported as “active; positive” and the mutagenic call (Test System: AMES SALMONELLA TYPHIMURIUM, Strain/Indicator: TA98, Metabolic Activation: HAMSTER, LIVER, S-9, AROCLOR 1254 (10%), Method: PREINCUBATION) is reported as “inactive; negative”. The mutagenic call [1] was “inactive; negative”, the mutagenic call (Test System: AMES SALMONELLA TYPHIMURIUM, Strain/Indicator: TA98, Metabolic Activation: RAT, LIVER, S-9, AROCLOR 1254 (10%), Method: PREINCUBATION) was “inactive; negative” and the mutagenic call (Test System: AMES SALMONELLA TYPHIMURIUM, Strain/Indicator: TA100, Metabolic Activation: HAMSTER, LIVER, S-9, AROCLOR 1254 (10%), Method: PREINCUBATION) was “inactive; negative”. The mutagenic call [2] was “inactive; negative”, the mutagenic call (Test System: AMES SALMONELLA TYPHIMURIUM, Strain/Indicator: TA100, Metabolic Activation: RAT, LIVER, S-9, AROCLOR 1254 (10%), Method: PREINCUBATION) was “inactive; negative” and the mutagenic call (Test System: AMES SALMONELLA TYPHIMURIUM, Strain/Indicator: TA1535, Metabolic Activation: HAMSTER, LIVER, S-9, AROCLOR 1254 (10%), Method: PREINCUBATION) was “inactive; negative”. The mutagenic call [3] was “inactive; negative”, the mutagenic call (Test System: AMES SALMONELLA TYPHIMURIUM, Strain/Indicator: TA1535, Metabolic Activation: RAT, LIVER, S-9, AROCLOR 1254 (10%), Method: PREINCUBATION) was “inactive; negative” and the mutagenic call (Test System: AMES SALMONELLA TYPHIMURIUM, Strain/Indicator: TA1537, Metabolic Activation: HAMSTER, LIVER, S-9, AROCLOR 1254 (10%), Method: PREINCUBATION) was “inactive; negative”. For the same molecule, the mutagenic call [4] was “inactive; negative” and the mutagenic call (Test System: AMES SALMONELLA TYPHIMURIUM, Strain/Indicator: TA1537, Metabolic Activation: RAT, LIVER, S-9, AROCLOR 1254 (10%), Method: PREINCUBATION) was “inactive; negative”.

CCOP(=S)(OCC)Oc1ccc(S(C)=O)cc1 (centres undefined) was tested, and the mutagenic call (End Point: In vivo micronucleus, Species: Mouse, Strain/Sex: NMRI/Male and female) was “inactive; negative”.
